From the supplement of paper PMC13380429

Experiments:
Details in all cases: 72 h
Vero E6 [1] = test: cell viability relative to DMSO; higher = less toxic
U2OS [2] = test: as above
Caco-2 [3] = test: as above
HepG2 [4] = test: as above
Vero E6 [5] = test: drug sensitivity score (DSS) for viability; higher = more toxic; extreme values may be limits of the assay
U2OS [6] = test: as above
Caco-2 [7] = test: as above
HepG2 [8] = test: as above
Vero E6 [9] = test: relative viability EC50 (midpoint between 100% and the lowest measured viability); higher = less toxic
U2OS [10] = test: as above
Caco-2 [11] = test: as above
HepG2 [12] = test: as above
Calu-3 [13] = test: drug sensitivity score (DSS) for viability; higher = more toxic; extreme values may be limits of the assay
Calu-3 [14] = test: cell viability relative to DMSO; higher = less toxic
Calu-3 [15] = test: relative viability EC50 (midpoint between 100% and the lowest measured viability); higher = less toxic

| SMILES | cell viability (Vero E6 [1]; 1 nM) | cell viability (Vero E6 [1]; 10 nM) | cell viability (Vero E6 [1]; 100 nM) | cell viability (Vero E6 [1]; 1000 nM) | cell viability (Vero E6 [1]; 10000 nM) | cell viability (U2OS [2]; 1 nM) | cell viability (U2OS [2]; 10 nM) | cell viability (U2OS [2]; 100 nM) | cell viability (U2OS [2]; 1000 nM) | cell viability (U2OS [2]; 10000 nM) | cell viability (Caco-2 [3]; 1 nM) | cell viability (Caco-2 [3]; 10 nM) | cell viability (Caco-2 [3]; 100 nM) | cell viability (Caco-2 [3]; 1000 nM) | cell viability (Caco-2 [3]; 10000 nM) | cell viability (HepG2 [4]; 1 nM) | cell viability (HepG2 [4]; 10 nM) | cell viability (HepG2 [4]; 100 nM) | cell viability (HepG2 [4]; 1000 nM) | cell viability (HepG2 [4]; 10000 nM) | drug sensitivity score (Vero E6 [5]) | drug sensitivity score (U2OS [6]) | drug sensitivity score (Caco-2 [7]) | drug sensitivity score (HepG2 [8]) | relative viability EC50 (Vero E6 [9]) | relative viability EC50 (U2OS [10]) | relative viability EC50 (Caco-2 [11]) | relative viability EC50 (HepG2 [12]) | drug sensitivity score (Calu-3 [13]) | cell viability (Calu-3 [14]; 1 nM) | cell viability (Calu-3 [14]; 10 nM) | cell viability (Calu-3 [14]; 100 nM) | cell viability (Calu-3 [14]; 1000 nM) | cell viability (Calu-3 [14]; 10000 nM) | relative viability EC50 (Calu-3 [15]) |
| --- | --- | --- | --- | --- | --- | --- | --- | --- | --- | --- | --- | --- | --- | --- | --- | --- | --- | --- | --- | --- | --- | --- | --- | --- | --- | --- | --- | --- | --- | --- | --- | --- | --- | --- | --- |
| NCC(O)(CS(=O)(=O)O)c1ccc(Cl)cc1 (centres undefined) [2-hydroxysaclofen] | 100% | 98.1% | 102% | 97.2% | 97.5% | 104% | 94.8% | 94.9% | 103% | 97.4% | 98.4% | 96.2% | 91.4% | 98.6% | 96.3% | 101% | 98.5% | 89.4% | 90.3% | 98.8% | 0 | 0 | 0 | 0.3 | > 10 µM | > 10 µM | > 10 µM | > 10 µM |  |  |  |  |  |  |  |
| CCn1c(O)nnc1-c1ccc(Cl)cc1 [5-(4chlorophenyl)-4-ethyl-2,4-dihydro-3H-1,2,4-triazol-3-one] | 97.9% | 102% | 102% | 106% | 79.6% | 100% | 103% | 99.8% | 98.1% | 78.6% | 116% | 112% | 112% | 91.6% | 79.1% | 112% | 111% | 102% | 98.3% | 94.7% | 0.4 | 1 | 1.6 | 0 | > 10 µM | > 10 µM | > 10 µM | > 10 µM |  |  |  |  |  |  |  |
| CC(=O)O[C@]1(C(C)=O)CC[C@H]2[C@@H]3C=CC4=CC(=O)CC[C@]4(C)[C@H]3CC[C@@]21C [6,7-dehydro-17-acetoxy-progesterone] | 106% | 99.5% | 104% | 98.1% | 98.2% | 96.4% | 99.6% | 97.3% | 101% | 94.8% | 95.6% | 97.5% | 93.7% | 92.8% | 92.6% | 102% | 103% | 105% | 105% | 98% | 0 | 0 | 0 | 0 | > 10 µM | > 10 µM | > 10 µM | > 10 µM |  |  |  |  |  |  |  |
| COc1ccccc1N1CCN(CCCCNC(=O)c2ccc3ccccc3c2)CC1 [BP-897] |  |  |  |  |  |  |  |  |  |  |  |  |  |  |  |  |  |  |  |  | 0 | 0 |  | 0 |  |  |  |  | 0.8 |  |  |  |  |  |  |
| Cc1ccc2c(c1)Cc1c(C(=O)NC3CCCCC3)nn(-c3ccc(Cl)cc3Cl)c1-2 [GP2a] | 99.5% | 96.2% | 99.8% | 100% | 100% | 95.8% | 99.4% | 97.4% | 105% | 102% | 91.8% | 89.6% | 97.3% | 95.4% | 91.7% | 100% | 102% | 99% | 88.9% | 99.7% | 0 | 0 | 0 | 0 | > 10 µM | > 10 µM | > 10 µM | > 10 µM |  |  |  |  |  |  |  |
| Nc1ncnc2c1c(-c1ccc(Cl)cc1)nn2-c1cccc(-c2cnnn2Cc2cccc(-c3ccccc3)c2)c1 [KB-SRC-4] | 97.7% | 99.1% | 95.9% | 93.7% | 105% | 95.2% | 96.5% | 95.5% | 101% | 103% | 99.1% | 94.7% | 99.7% | 93.6% | 101% | 107% | 98.4% | 99.1% | 99.5% | 111% | 0 | 0 | 0 | 0 | > 10 µM | > 10 µM | > 10 µM | > 10 µM |  |  |  |  |  |  |  |
| CC(C)NC(=O)COc1cccc(-c2nc(Nc3ccc4[nH]ncc4c3)c3ccccc3n2)c1 [KD025] | 105% | 99.1% | 104% | 97.3% | 72.8% | 97.2% | 103% | 97.5% | 101% | 46.5% | 104% | 100% | 102% | 97.8% | 70.5% | 98.7% | 96.8% | 107% | 86.8% | 94.5% | 1.5 | 2.7 | 1.6 | 0.8 |  | 3.29 µM |  | > 10 µM | 0 | 95.6% | 108% | 89.4% | 105% | 108% | > 10 µM |
| COc1cc(C(=O)N2CCC(N3CCN(C)CC3)CC2)ccc1Nc1ncc2c(n1)N(C)c1ccccc1C(=O)N2C [LRRK2-IN-1] | 99.5% | 100% | 94% | 94.3% | 13.5% | 101% | 95.9% | 98.5% | 90.6% | 50.1% | 96% | 87.2% | 98.8% | 91.7% | 67.8% | 99.4% | 99.4% | 98.8% | 103% | 31.6% | 5.7 | 4.2 | 2.7 | 3.5 | 2.64 µM |  |  | 3.42 µM | 4.4 | 102% | 89.2% | 102% | 88.1% | 52.2% |  |
